Laboratory results from patent US20090196924A1 (priority 2008, published 2009).
Converted amounts (≈) assume the structure as drawn.

What was measured:
[1] = Solubility of lamotrigine; type: physicochemical; settings: all media; slightly pH-dependent, highest in 0.1N HCl
[2] = 25° C., cited from earlier work
[3] = concomitant valproate (reduces hepatic clearance of lamotrigine), for a given dose; cited from earlier work

## Nc1nnc(-c2cccc(Cl)c2Cl)c(N)n1 [Lamotrigine, 3,5-diamino-6-(2,3-dichlorophenyl)-as-triazine]
[1]
  solubility of lamotrigine: moderately high in all media
[2]; 0.1 M HCl
  solubility in 0.1 M HCl: 4100 µg/mL (≈ 16 mM)
[2]; water
  solubility in water: 170 µg/mL (≈ 0.664 mM)
[3]
  increase of plasma concentrations of the drug: approximately two-fold
